Remaining binding data for two compounds are collected here from publication PMC5862592, “CDK8/19 inhibition induces premature G1/S transition and ATR-dependent cell death in prostate cancer cells” (Oncotarget, 2018).

Assay in all cases: biochemical
Holding throughout (set-up): KINOMEscan active site-directed competition binding assay (DiscoveRx), 456 kinases, per cent of control at 300 nM
What all share (settings): read-out: Percent of Control (%)

Experiment [1] addresses LTK (Homo sapiens, UniProt P29376). In short, it runs like this:
(§1)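 Binding was measured with an active site-directed competition binding assay that quantifies compound–kinase interactions. Test compounds were screened at 300 nmol/L across a 456-kinase panel.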

Experiment [2] deals with T1, PIP5K2B (Homo sapiens, UniProt P78356).
T1 construct: gene PIP4K2B
The method in brief:
as §1

The target in experiment [3] is TIE1 (Homo sapiens, UniProt P35590). In short, it runs like this:
as §1

Experiment [4] deals with T2, ABL1(T315I)-phosphorylated (Homo sapiens, UniProt P00519, T315I).
T2 construct: phosphorylated
In short, it runs like this: as §1

Experiment [5] deals with T3, ABL1(H396P)-phosphorylated (Homo sapiens, UniProt P00519, H396P).
T3 construct: phosphorylated
In short, it runs like this:
as §1

For experiment [6], the target named is HCK (Homo sapiens, UniProt P08631). In short, it runs like this: as §1
Sequence of HCK (P08631 whole entry): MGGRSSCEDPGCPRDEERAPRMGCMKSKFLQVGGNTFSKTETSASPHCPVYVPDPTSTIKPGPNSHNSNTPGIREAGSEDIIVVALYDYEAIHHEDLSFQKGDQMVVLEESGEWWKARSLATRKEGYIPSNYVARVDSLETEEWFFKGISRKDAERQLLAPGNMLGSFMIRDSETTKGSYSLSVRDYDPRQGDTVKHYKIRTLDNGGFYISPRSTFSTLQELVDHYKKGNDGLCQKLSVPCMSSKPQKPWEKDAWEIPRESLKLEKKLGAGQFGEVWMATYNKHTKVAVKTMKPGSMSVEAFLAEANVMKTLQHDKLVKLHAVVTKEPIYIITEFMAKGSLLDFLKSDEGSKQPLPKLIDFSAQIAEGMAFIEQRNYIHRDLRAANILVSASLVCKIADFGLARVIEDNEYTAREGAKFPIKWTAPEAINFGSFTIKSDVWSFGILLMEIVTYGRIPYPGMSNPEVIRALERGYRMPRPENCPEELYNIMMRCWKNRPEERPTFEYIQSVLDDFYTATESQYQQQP
Experiment [7] has as its target PIK3CD (Homo sapiens, UniProt O00329). In short, it runs like this:
as §1

Experiment [8] has as its target FES (Homo sapiens, UniProt P07332). In short, it runs like this:
as §1

Experiment [9] deals with CAMKK2 (Homo sapiens, UniProt Q96RR4). The method in brief:
as §1

For experiment [10], the target named is CDK8 (Homo sapiens, UniProt P49336). The method in brief: as §1
Experiment [11] concerns the target KIT(V559D,V654A) (Homo sapiens, UniProt P10721, V559D/V654A). The method in brief: as §1
Experiment [12] deals with EPHB1 (Homo sapiens, UniProt P54762). The method in brief: as §1
Sequence of EPHB1 (P54762 whole entry): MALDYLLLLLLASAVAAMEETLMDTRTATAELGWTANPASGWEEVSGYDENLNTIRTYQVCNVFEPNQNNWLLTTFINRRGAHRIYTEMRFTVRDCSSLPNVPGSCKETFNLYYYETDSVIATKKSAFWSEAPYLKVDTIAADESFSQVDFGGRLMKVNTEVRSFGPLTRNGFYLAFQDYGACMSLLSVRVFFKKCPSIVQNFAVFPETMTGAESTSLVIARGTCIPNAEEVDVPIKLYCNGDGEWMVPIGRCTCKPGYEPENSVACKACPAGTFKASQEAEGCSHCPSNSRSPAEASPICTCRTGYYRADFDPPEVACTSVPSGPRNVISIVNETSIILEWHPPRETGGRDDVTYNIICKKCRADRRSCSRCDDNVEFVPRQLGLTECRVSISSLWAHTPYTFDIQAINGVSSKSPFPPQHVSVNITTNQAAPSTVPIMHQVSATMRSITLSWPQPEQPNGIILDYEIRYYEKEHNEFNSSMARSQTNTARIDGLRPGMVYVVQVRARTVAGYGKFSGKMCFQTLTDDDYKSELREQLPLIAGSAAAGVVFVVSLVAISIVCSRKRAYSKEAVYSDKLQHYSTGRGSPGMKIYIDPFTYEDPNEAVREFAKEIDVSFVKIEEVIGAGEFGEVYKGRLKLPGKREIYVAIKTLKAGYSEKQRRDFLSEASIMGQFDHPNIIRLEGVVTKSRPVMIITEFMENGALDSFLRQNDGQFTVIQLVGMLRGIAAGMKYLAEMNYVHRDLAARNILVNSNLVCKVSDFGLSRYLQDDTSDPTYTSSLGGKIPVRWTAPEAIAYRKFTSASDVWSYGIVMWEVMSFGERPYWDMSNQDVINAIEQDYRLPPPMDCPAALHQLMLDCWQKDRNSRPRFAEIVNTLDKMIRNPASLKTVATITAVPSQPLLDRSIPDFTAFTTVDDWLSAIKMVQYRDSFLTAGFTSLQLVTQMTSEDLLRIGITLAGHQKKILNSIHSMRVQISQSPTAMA
Experiment [13] concerns the target ULK2 (Homo sapiens, UniProt Q8IYT8). In short, it runs like this:
as §1

Experiment [14] deals with GAK (Homo sapiens, UniProt O14976). The method in brief:
as §1

In experiment [15] the target is RET(V804M) (Homo sapiens, UniProt P07949, V804M). In short, it runs like this:
as §1

In experiment [16] the target is SRPK3 (Homo sapiens, UniProt Q9UPE1). The method in brief: as §1
Experiment [17] has as its target T4, ASK1 (Homo sapiens, UniProt Q99683).
T4 construct: gene MAP3K5
In short, it runs like this: as §1

Experiment [18] concerns the target T5, RPS6KA5(Kin.Dom.1-N-terminal) (Homo sapiens, UniProt O75582).
T5 construct: Kin.Dom.1-N-terminal
In short, it runs like this:
as §1

Experiment [19] addresses HUNK (Homo sapiens, UniProt P57058). The method in brief: as §1
Experiment [20] deals with T6, MST1 (Homo sapiens, UniProt Q13043).
T6 construct: gene STK4
In short, it runs like this:
as §1

Experiment [21] concerns the target PRKD2 (Homo sapiens, UniProt Q9BZL6). In short, it runs like this: as §1
For experiment [22], the target named is DDR1 (Homo sapiens, UniProt Q08345). The method in brief: as §1

SMILES strings stand for the structures. Where two headings read alike, the source gives them in different places.

Sequence of PRKD2 (Q9BZL6 whole entry): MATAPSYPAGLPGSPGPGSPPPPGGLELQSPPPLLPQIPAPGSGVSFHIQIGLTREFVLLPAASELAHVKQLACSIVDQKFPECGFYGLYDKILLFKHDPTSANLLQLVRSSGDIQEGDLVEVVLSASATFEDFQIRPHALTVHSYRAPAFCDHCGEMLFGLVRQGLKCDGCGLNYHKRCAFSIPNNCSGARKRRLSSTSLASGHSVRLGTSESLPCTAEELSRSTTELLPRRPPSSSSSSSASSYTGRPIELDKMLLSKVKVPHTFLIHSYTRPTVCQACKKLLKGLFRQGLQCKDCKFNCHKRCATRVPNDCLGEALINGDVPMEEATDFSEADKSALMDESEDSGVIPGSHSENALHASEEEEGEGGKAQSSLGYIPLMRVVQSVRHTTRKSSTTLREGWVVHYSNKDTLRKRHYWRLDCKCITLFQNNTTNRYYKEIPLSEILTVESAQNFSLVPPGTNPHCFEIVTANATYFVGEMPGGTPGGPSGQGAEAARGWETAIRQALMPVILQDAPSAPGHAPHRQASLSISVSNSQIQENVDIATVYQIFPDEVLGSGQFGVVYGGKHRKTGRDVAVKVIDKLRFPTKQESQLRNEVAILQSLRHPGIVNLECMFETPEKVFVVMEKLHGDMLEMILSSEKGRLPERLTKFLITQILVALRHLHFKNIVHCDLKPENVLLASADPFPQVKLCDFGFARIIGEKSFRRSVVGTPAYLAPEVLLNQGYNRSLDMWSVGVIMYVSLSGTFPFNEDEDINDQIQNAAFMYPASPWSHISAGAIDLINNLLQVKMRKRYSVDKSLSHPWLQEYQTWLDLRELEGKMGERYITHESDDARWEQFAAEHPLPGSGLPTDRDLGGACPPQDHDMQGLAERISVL
Sequence of HUNK (P57058 whole entry): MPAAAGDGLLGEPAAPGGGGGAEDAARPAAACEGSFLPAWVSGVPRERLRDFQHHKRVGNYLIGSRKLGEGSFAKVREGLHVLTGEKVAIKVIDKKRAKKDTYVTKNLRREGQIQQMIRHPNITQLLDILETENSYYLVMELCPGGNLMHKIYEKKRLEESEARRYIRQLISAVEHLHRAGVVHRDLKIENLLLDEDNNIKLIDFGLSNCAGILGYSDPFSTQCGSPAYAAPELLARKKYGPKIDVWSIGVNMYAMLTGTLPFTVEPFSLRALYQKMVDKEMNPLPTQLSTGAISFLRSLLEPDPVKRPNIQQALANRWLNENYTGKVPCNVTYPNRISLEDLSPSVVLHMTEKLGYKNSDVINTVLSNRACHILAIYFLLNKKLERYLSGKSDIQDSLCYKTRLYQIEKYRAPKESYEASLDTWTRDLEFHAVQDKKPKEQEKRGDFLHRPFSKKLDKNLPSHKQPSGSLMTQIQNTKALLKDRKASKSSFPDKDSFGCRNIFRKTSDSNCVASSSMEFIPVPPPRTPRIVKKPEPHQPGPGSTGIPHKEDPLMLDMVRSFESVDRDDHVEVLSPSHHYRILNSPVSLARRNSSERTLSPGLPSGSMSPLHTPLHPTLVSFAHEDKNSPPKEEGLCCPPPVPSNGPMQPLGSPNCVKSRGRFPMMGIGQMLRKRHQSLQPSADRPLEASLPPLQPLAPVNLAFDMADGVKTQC
Sequence of KIT(V559D,V654A) (P10721 whole entry V559D/V654A): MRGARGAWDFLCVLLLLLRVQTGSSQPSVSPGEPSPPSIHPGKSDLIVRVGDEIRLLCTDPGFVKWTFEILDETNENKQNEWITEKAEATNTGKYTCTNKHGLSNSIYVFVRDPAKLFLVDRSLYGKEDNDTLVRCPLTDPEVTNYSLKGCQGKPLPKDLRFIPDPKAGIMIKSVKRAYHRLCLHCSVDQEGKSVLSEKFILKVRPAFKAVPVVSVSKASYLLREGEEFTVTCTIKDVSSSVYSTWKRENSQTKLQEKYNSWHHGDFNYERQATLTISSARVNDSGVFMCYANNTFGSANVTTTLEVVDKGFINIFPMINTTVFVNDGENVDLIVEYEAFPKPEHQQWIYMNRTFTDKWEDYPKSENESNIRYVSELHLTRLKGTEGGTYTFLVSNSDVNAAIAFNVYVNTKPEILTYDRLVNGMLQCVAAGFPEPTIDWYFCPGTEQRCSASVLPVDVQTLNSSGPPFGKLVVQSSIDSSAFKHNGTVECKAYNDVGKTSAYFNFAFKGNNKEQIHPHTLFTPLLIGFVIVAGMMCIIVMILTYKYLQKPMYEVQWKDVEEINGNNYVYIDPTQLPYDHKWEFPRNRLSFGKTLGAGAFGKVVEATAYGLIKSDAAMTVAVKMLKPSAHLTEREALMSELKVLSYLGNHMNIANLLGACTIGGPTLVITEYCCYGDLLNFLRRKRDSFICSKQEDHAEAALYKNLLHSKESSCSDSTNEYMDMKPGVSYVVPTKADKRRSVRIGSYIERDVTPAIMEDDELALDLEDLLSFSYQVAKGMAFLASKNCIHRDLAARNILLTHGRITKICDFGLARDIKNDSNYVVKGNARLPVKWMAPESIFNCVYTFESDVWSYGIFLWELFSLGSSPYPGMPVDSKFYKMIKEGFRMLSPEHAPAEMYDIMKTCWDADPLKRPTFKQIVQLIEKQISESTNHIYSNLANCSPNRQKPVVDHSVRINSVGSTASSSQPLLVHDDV
Sequence of LTK (P29376 whole entry): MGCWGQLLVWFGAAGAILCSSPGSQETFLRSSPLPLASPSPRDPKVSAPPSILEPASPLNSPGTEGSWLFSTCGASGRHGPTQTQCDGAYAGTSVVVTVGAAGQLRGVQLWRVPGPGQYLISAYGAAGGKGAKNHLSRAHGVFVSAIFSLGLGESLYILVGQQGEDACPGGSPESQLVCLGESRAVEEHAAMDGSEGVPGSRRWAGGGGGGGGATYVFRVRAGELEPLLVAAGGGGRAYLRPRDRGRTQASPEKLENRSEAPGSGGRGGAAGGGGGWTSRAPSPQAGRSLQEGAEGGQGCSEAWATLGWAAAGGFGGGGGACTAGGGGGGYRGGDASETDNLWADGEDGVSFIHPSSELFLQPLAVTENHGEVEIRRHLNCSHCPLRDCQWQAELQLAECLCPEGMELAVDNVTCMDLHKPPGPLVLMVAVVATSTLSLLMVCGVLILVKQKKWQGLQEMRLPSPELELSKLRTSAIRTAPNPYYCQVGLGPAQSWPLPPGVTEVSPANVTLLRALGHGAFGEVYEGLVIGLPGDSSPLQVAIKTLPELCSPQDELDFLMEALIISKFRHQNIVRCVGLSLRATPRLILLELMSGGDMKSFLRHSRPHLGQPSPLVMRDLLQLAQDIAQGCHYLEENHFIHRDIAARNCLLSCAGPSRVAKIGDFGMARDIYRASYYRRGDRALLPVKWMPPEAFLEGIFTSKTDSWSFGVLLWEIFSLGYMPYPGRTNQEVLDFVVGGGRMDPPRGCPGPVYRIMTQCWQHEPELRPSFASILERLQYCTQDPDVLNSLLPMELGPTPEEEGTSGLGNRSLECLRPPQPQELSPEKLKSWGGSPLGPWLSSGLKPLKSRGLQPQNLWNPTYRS

For `O=C(/C=C/c1cnccc1-c1ccc(F)cc1)Nc1ccc(CCc2nnco2)cc1` [T-418, (2E)-3-(4-(4-fluorophenyl)pyridin-3-yl)-N-(4-(2-(1,3,4-oxadiazol-2-yl)ethyl)phenyl)acrylamide], the remaining binding at 0.3 µM in [1] (sheet T-418) is 100%; in experiment [2] (sheet T-418), 94%; in [3] (sheet T-418) it was 100%; in experiment [4] (sheet T-418) it was 100%; in experiment [5] (sheet T-418), 96%; in experiment [6] (sheet T-418), 100%. The remaining binding at 0.3 µM was determined as 99% in [7] (sheet T-418); 83% in experiment [8] (sheet T-418); 100% in [9] (sheet T-418); 48% in [10] (sheet T-418); 96% in experiment [11] (sheet T-418); 86% in experiment [12] (sheet T-418). Also, the remaining binding at 0.3 µM in experiment [13] (sheet T-418) came to 100%; in [14] (sheet T-418) it was 100%; in experiment [15] (sheet T-418) it was 100%; in [16] (sheet T-418), 100%; in experiment [17] (sheet T-418), 92%; in experiment [18] (sheet T-418) it was 80%. Moreover, the remaining binding at 0.3 µM is 100% in experiment [19] (sheet T-418), 89% in experiment [20] (sheet T-418), 76% in experiment [21] (sheet T-418) and 100% in experiment [22] (sheet T-418).

Turning to `Cc1ncccc1Oc1sc(C(N)=O)c2c1-c1c(cnn1C)CC2` [T-474, 1-methyl-8-((2-methylpyridin-3-yl)oxy)-4,5-dihydro-1H-thieno[3,4-g]indazole-6-carboxamide], the remaining binding at 0.3 µM in experiment [1], in [2], in experiment [3], in experiment [4], in experiment [5] and in [6] was 100% each time. Also, the remaining binding at 0.3 µM in experiment [7] was 88%; in experiment [8], 100%; in experiment [9], 100%; in experiment [10], 9.8%; in experiment [11] it was 100%; in experiment [12], 82%. The remaining binding at 0.3 µM in experiment [13] stood at 100%; in [14] it was 92%; in experiment [15], 100%; in experiment [16], 100%; in experiment [17] it was 81%; in experiment [18] it was 100%. Also, the remaining binding at 0.3 µM in experiment [19], in experiment [20], in experiment [21] and in experiment [22] was 100% in each case.
